Experimental data: US10000471B2, “Pyrazole P38 map kinase inhibitors” (Respivert Limited, priority 2010, dated 2018)

What was measured:
[1] = biological target: T1, p38 MAPKα isoform (MAPK14) (Homo sapiens, UniProt Q16539); assay: Enzyme inhibition assay (FRET, Z-LYTE), p38 MAPKα via MAPKAP-K2 activation; assay type: biochemical; settings: read-out: Enzyme Inhibition IC50 p38α
T1 construct: purchased Invitrogen
Outline: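 Z-LYTE FRET format, in which protease cleaves only non-phosphorylated peptide, read after 1 h development. Compound was mixed with p38 MAPKα for 2 h at RT, and inhibition was gauged from MAPKAP-K2 activation/phosphorylation rather than directly. Percent inhibition against an uninhibited control was fitted to give IC50.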

p38 MAPKγ (MAPK12) = biological target: T2, p38 MAPKγ (MAPK12) (Homo sapiens, UniProt P53778); assay: Enzyme inhibition assay (FRET, Z-LYTE), p38 MAPKγ; assay type: biochemical; settings: read-out: Enzyme Inhibition IC50 p38γ
T2 construct: purchased Invitrogen
T2 sequence (P53778 1-367): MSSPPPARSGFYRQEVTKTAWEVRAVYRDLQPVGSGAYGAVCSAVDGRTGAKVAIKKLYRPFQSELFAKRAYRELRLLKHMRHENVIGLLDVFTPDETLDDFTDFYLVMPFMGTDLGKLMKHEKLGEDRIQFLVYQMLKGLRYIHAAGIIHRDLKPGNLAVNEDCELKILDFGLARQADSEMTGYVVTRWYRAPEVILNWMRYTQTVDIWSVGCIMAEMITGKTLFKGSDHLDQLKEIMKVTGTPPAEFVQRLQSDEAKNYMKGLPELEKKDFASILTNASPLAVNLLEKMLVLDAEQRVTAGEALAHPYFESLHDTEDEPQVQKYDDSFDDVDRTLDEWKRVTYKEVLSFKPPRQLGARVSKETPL
Outline: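 Z-LYTE FRET readout: after 1 h kinase reaction (ATP 100 μM, peptide 2 μM) following 2 h RT enzyme–compound preincubation in HEPES, protease cleaves only unphosphorylated peptide. Percent inhibition from donor/acceptor ratio relative to control; IC50 fitted from the curve.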

[2] = test system: IL-8 release in d-U937 cells; assay: LPS-induced IL-8 release in d-U937 cells; assay type: cell-based, human; settings: Homo sapiens, dU937
Outline: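 Sandwich ELISA of TNFα and IL-8 in supernatants after 4 hr 0.1 μg/mL LPS (E. coli O111:B4) challenge of U937 cells differentiated with PMA 100 ng/ml for 48–72 hr, compound added 2 hr beforehand. IL-8: IC50 from inhibition versus vehicle; TNFα: REC50 from inhibition as percentage of 10 μg/mL BIRB796 effect.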

A/J mice = assay: Cigarette smoke model; assay type: in vivo; settings: for inhibition of both macrophage and neutrophil accumulation into the BALF: animals previously exposed to cigarette smoke; for Cell numbers in BAL (% Inhibition), Macrophages / Cell numbers in BAL (% Inhibition), Neutrophils / Cell numbers in BAL, Macrophages / Cell numbers in BAL, Neutrophils: Table 8
Experimental: A/J mice (males, 5 weeks old) were exposed to cigarette smoke (4% cigarette smoke, diluted with air) for 30 min/day for 11 days using a Tobacco Smoke Inhalation Experiment System for small animals (Model SIS-CS; Sibata Scientific Technology, Tokyo, Japan). Test substances were administered intra-nasally (35 μL of solution in 50% DMSO/PBS) twice daily for 3 days after the final cigarette smoke exposure. At 12 hr after the last dosing, each of the animals was anesthetized, the trachea cannulated and bronchoalveolar lavage fluid (BALF) was collected. The numbers of alveolar macrophages and neutrophils were determined by FACS analysis (EPICS® ALTRA II, Beckman Coulter, Inc., Fullerton, Calif., USA) using anti-mouse MOMA2 antibody (macrophage) or anti-mouse 7/4 antibody (neutrophil).
The data for cell numbers are shown as the mean±SEM.

[3] = Cigarette smoke + 0.064 μg/mL, intra-nasal twice daily 3 days
[4] = Table 7, Cigarette smoke + 8.0 μg/mL
[5] = Table 7, Cigarette smoke + 40 μg/mL
[6] = Table 7, Cigarette smoke + 200 μg/mL

T1 sequence (Q16539 whole entry, canonical isoform): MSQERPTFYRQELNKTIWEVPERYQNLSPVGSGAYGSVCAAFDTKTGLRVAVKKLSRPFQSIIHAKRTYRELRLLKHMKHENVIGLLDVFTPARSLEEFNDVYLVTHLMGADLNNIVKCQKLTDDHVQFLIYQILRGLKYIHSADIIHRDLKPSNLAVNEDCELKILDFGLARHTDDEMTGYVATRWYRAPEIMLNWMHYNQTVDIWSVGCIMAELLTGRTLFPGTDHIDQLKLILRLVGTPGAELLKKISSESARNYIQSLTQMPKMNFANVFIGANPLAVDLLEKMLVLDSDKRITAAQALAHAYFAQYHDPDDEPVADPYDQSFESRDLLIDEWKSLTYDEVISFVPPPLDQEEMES

CNC(=O)Nc1cc(Oc2ccc(NC(=O)Nc3cc(C(C)(C)C)nn3-c3ccc(OC)cc3)c(Cl)c2Cl)ccn1 [Example 9, N-Methyl-N′-4-(4-(3-(3-tert-butyl-1-p-anisyl-1H-pyrazol-5-yl)ureido)-2,3-dichlorophen-1-yloxy)pyridin-2-ylurea]
IC50 [1]: 19.1 nM | IC50 (p38 MAPKγ (MAPK12)): 67.2 nM | IC50 [2]: 0.8 nM | Cell numbers in BAL (% Inhibition), Macrophage (A/J mice; [3]): 19% | Cell numbers in BAL (% Inhibition), Neutrophil (A/J mice; [3]): 3% | Cell numbers in BAL, Macrophage (A/J mice; [3]): 16.2 ± 1.7 × 10^4/mL | Cell numbers in BAL, Neutrophil (A/J mice; [3]): 17.7 ± 2.5 × 10^4/mL | Cell numbers in BAL (% Inhibition), Macrophage (A/J mice; Cigarette smoke + 0.32 μg/mL): 17% | Cell numbers in BAL (% Inhibition), Neutrophil (A/J mice; Cigarette smoke + 0.32 μg/mL): 16% | Cell numbers in BAL, Macrophage (A/J mice; Cigarette smoke + 0.32 μg/mL): 16.5 ± 2.4 × 10^4/mL | Cell numbers in BAL, Neutrophil (A/J mice; Cigarette smoke + 0.32 μg/mL): 15.5 ± 0.47 × 10^4/mL | Cell numbers in BAL (% Inhibition), Macrophage (A/J mice; Cigarette smoke + 1.6 μg/mL): 19% | Cell numbers in BAL (% Inhibition), Neutrophil (A/J mice; Cigarette smoke + 1.6 μg/mL): 21% | Cell numbers in BAL, Macrophage (A/J mice; Cigarette smoke + 1.6 μg/mL): 16.2 ± 1.3 × 10^4/mL | Cell numbers in BAL, Neutrophil (A/J mice; Cigarette smoke + 1.6 μg/mL): 14.7 ± 1.6 × 10^4/mL | Cell numbers in BAL (% Inhibition), Macrophage (A/J mice; [4]): 39% | Cell numbers in BAL (% Inhibition), Neutrophil (A/J mice; [4]): 29% | Cell numbers in BAL, Macrophage (A/J mice; [4]): 13.1 ± 1.2 × 10^4/mL | Cell numbers in BAL, Neutrophil (A/J mice; [4]): 13.4 ± 1.4 × 10^4/mL | Cell numbers in BAL (% Inhibition), Macrophage (A/J mice; [5]): 61% | Cell numbers in BAL (% Inhibition), Neutrophil (A/J mice; [5]): 42% | Cell numbers in BAL, Macrophage (A/J mice; [5]): 9.9 ± 1.6 × 10^4/mL | Cell numbers in BAL, Neutrophil (A/J mice; [5]): 11.2 ± 2.1 × 10^4/mL | Cell numbers in BAL (% Inhibition), Macrophage (A/J mice; [6]): 85% | Cell numbers in BAL (% Inhibition), Neutrophil (A/J mice; [6]): 72% | Cell numbers in BAL, Macrophage (A/J mice; [6]): 6.1 ± 0.93 × 10^4/mL | Cell numbers in BAL, Neutrophil (A/J mice; [6]): 6.3 ± 0.79 × 10^4/mL | inhibition of both macrophage and neutrophil accumulation into the BALF (A/J mice): dose-dependent inhibition

COc1ccc(-n2nc(C(C)(C)C)cc2NC(=O)Nc2ccc(Oc3ccnc(NC(=O)N4CCCC4)c3)c(Cl)c2Cl)cc1 [Example 76, N-(4-(4-(3-(3-(tert-butyl)-1-(4-methoxyphenyl)-1H-pyrazol-5-yl)ureido)-2,3-dichlorophenoxy)pyridin-2-yl)pyrrolidine-1-carboxamide]
IC50 [1]: 21 nM | IC50 (p38 MAPKγ (MAPK12)): 134 nM | IC50 [2]: 0.8 nM | Cell numbers in BAL (% Inhibition), Macrophages (A/J mice; Cigarette smoke + 8.0 μg/mL): 57% | Cell numbers in BAL (% Inhibition), Neutrophils (A/J mice; Cigarette smoke + 8.0 μg/mL): 52% | Cell numbers in BAL, Macrophages (A/J mice; Cigarette smoke + 8.0 μg/mL): 8.5 ± 0.35 × 10^4/mL | Cell numbers in BAL, Neutrophils (A/J mice; Cigarette smoke + 8.0 μg/mL): 9.6 ± 0.48 × 10^4/mL | Cell numbers in BAL (% Inhibition), Macrophages (A/J mice; Cigarette smoke + 40 μg/mL): 84% | Cell numbers in BAL (% Inhibition), Neutrophils (A/J mice; Cigarette smoke + 40 μg/mL): 66% | Cell numbers in BAL, Macrophages (A/J mice; Cigarette smoke + 40 μg/mL): 5.3 ± 0.36 × 10^4/mL | Cell numbers in BAL, Neutrophils (A/J mice; Cigarette smoke + 40 μg/mL): 7.4 ± 0.76 × 10^4/mL | Cell numbers in BAL (% Inhibition), Macrophages (A/J mice; Cigarette smoke + 200 μg/mL): 97% | Cell numbers in BAL (% Inhibition), Neutrophils (A/J mice; Cigarette smoke + 200 μg/mL): 86% | Cell numbers in BAL, Macrophages (A/J mice; Cigarette smoke + 200 μg/mL): 3.6 ± 0.39 × 10^4/mL | Cell numbers in BAL, Neutrophils (A/J mice; Cigarette smoke + 200 μg/mL): 4.0 ± 0.49 × 10^4/mL | inhibition of both macrophage and neutrophil accumulation into the BALF (A/J mice): dose-dependent inhibition
